Columns and labels:
RXRα = target: T1, RXRα (Homo sapiens, UniProt P19793); experiment: ligand binding assay, RXRα; details: read-out: RXR Bind Ki α
T1 construct: expressed in transfected cells
T1 sequence (P19793 1-462): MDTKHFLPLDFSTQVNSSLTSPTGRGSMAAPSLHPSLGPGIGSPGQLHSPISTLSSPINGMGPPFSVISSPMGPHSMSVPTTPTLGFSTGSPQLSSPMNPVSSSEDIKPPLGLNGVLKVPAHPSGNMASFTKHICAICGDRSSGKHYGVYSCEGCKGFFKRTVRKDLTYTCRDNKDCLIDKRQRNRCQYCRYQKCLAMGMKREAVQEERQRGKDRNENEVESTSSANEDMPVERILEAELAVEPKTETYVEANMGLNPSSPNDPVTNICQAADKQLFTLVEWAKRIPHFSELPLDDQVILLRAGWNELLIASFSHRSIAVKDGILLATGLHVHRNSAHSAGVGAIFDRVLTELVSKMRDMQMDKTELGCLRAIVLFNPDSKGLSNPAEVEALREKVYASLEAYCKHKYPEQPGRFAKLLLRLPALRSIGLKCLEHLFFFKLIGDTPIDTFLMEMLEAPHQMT
Excerpt: (§1) Other assays described below, measure the ability of the compounds of the present invention to bind to, and/or activate various retinoid receptor subtypes. When in these assays a compound binds to a given receptor subtype and activates the transcription of a reporter gene through that subtype, then the compound is considered an agonist of that receptor subtype. […] In the below described assays the ability of the compounds to bind to RARα, RARβ, RARγ, RXRα, RXRβ and RXRγ receptors, and the ability or inability of the compounds to activate transcription of a reporter gene through these receptor subtypes can be tested. […] However, some of the compounds of the invention may behave as retinoid antagonists or partial antagonists and/or as inverse agonists. Because of the complex distribution of the different retinoid receptors in various organs of the mammalian body partial agonists and partial antagonists and compounds which have the characteristics of both may lend themselves to particularly useful therapeutic applications and may avoid serious side effects of conventional retinoid drugs.
(§2) A holoreceptor transactivation assay and a ligand binding assay which measure the antagonist/agonist like activity of the compounds of the invention, or their ability to bind to the several retinoid receptor subtypes, respectively, are described in published PCT Application No. WO WO93/11755 (particularly on pages 30-33 and 37-41) published on Jun. 24, 1993, the specification of which is also incorporated herein by reference. A detailed experimental procedure for holoreceptor transactivations has been described by Heyman et al. Cell 68, 397-406, (1992); Allegretto et al. J. Biol. Chem. 268, 26625-26633, and Mangelsdorf et al. The Retinoids: Biology, Chemistry and Medicine, pp 319-349, Raven Press Ltd., New York, which are expressly incorporated herein by reference. The results obtained in this assay are expressed in EC50 numbers, as they are also in the chimeric receptor transactivation assay. The results of ligand binding assay are expressed in Kd numbers. (See Cheng et al. Biochemical Pharmacology Vol. 22 pp 3099-3108, expressly incorporated herein by reference.)
(§3) Table 1 discloses the activity of certain exemplary compounds of the invention in the above-described chimeric receptor transactivation assay, holoreceptor transactivation assay and a ligand binding assays. Particularly, the transactivation data pertaining to RAR receptors were obtained in the chimeric assay, and the data pertaining to transactivation of RXR receptors were obtained in the holoreceptor transactivation assay.

RXRγ = target: T2, RXRγ (Mus musculus, UniProt P28705); experiment: holoreceptor transactivation assay, RXRγ; type: cell-based; details: for EC50: holoreceptor transactivation, RXRγ, read-out: RXR Trans. EC50 γ; for Emax: relative to 10^-6 M cyclopropyl penta-2,4-dienoic acid reference (RXRs), read-out: % efficacy (RXRγ transactivation)
T2 construct: expressed in transfected cells
T2 sequence (P28705 1-463): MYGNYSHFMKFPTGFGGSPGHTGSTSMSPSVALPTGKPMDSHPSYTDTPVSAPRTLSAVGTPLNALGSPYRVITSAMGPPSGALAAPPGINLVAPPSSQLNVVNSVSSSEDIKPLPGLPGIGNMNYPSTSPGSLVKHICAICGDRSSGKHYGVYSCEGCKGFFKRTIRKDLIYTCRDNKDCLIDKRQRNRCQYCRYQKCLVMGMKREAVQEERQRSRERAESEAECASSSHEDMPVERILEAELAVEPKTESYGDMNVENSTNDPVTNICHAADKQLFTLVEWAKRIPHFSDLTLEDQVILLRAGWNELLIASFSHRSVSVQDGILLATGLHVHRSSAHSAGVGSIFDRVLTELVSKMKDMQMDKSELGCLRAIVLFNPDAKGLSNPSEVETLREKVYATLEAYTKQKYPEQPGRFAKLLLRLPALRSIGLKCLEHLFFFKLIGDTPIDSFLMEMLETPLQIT
Excerpt: as §1, §2, §3

RXRβ [1] = target: T3, RXRβ (Mus musculus, UniProt P28704); experiment: holoreceptor transactivation assay, RXRβ; type: cell-based; details: for EC50: holoreceptor transactivation, RXRβ, read-out: RXR Trans. EC50 β; for Emax: relative to 10^-6 M cyclopropyl penta-2,4-dienoic acid reference (RXRs), read-out: % efficacy (RXRβ transactivation)
T3 construct: expressed in transfected cells
T3 sequence (P28704 1-520): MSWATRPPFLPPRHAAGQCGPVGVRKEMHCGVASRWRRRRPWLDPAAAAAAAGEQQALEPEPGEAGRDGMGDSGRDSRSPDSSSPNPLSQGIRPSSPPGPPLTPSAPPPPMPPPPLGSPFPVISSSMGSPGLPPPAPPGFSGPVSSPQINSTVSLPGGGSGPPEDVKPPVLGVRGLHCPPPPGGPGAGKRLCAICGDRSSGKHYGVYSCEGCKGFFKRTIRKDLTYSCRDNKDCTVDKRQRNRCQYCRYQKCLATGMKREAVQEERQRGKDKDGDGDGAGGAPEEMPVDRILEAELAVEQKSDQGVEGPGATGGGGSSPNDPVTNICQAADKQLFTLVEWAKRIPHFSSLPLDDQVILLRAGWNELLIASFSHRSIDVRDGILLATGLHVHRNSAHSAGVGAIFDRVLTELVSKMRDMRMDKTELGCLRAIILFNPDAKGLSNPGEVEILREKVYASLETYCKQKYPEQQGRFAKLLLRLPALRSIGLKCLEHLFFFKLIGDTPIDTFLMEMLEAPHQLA
Excerpt: as §1, §2, §3

RXRβ [2] = experiment: ligand binding assay, RXRβ; details: read-out: RXR Bind Ki β
Excerpt: as §1, §2, §3

## CCN(c1ccc(C(=O)O)cc1)c1cc(C)c2c(c1)C(C)(C)CO2 [Compound 27, 4-[Ethyl-(3,3,7-trimethyl-2,3-dihydro-benzofuran-5-yl)-amino]-benzoic acid]
RXRα
  Ki: 15000 nM
RXRγ
  EC50: > 1000 nM
RXRβ [1]
  EC50: > 1000 nM
RXRβ [2]
  Ki: > 100000 nM

## CCc1cc(N(CC)c2ccc(C(=O)O)cc2)cc2c1OCC2(C)C [Compound 29, 4-[Ethyl-(3,3-dimethyl-7-ethyl-2,3-dihydro-benzofuran-5-yl)-amino]-benzoic acid]
RXRα
  Ki: > 1000 nM
RXRγ
  EC50: 692 nM
  Emax: 130%
RXRβ [1]
  EC50: 800 nM
  Emax: 70%
RXRβ [2]
  Ki: > 1000 nM

## CC(C)c1cc(N(c2ccc(C(=O)O)cc2)C(C)C)cc2c1OCC2(C)C [Compound 43]
RXRα
  Ki: > 1000 nM
RXRγ
  EC50: 19 nM
  Emax: 108%
RXRβ [1]
  EC50: 58 nM
  Emax: 58%

## CCCN(c1ccc(C(=O)O)cc1)c1ccc2c(c1)C(C)(C)OC2(C)C [Compound 84, 4-[n-Propyl-(1,1,3,3-tetramethyl-1,3-dihydro-isobenzofuran-5-yl)-amino]-benzoic acid]
RXRα
  Ki: 1500 nM
RXRγ
  EC50: 51 nM
  Emax: 124%
RXRβ [1]
  EC50: 1000 nM
  Emax: 184%
RXRβ [2]
  Ki: 2000 nM

## CCc1cc(N(c2ccc(C(=O)O)cc2)C(C)C)cc2c1OCC2(C)C [Compound 42, 4-[Isopropyl-(3,3-dimethyl-7-ethyl-2,3-dihydro-benzofuran-5-yl)-amino]-benzoic acid]
RXRα
  Ki: > 1000 nM
RXRγ
  EC50: 511 nM
  Emax: 132%
RXRβ [1]
  EC50: > 1000 nM
  Emax: 30%
RXRβ [2]
  Ki: > 1000 nM

## CCN(c1ccc(C(=O)O)cc1)c1cc(C(C)C)c2c(c1)C(C)(C)CO2 [Compound 31, 4-[Ethyl-(3,3-dimethyl-7-isopropyl-2,3-dihydro-benzofuran-5-yl)-amino]-benzoic acid]
RXRα
  Ki: 1.8 nM
RXRγ
  EC50: 85 nM
  Emax: 125%
RXRβ [1]
  EC50: 1000 nM
  Emax: 75%
RXRβ [2]
  Ki: 752 nM

## CC(C)N(c1ccc(C(=O)O)cc1)c1cc(C(C)(C)C)c2c(c1)C(C)(C)CO2 [Compound 44, 4-[Isopropyl-(7-t-butyl-3,3-dimethyl-2,3-dihydro-benzofuran-5-yl)-amino]-benzoic acid]
RXRα
  Ki: 11 nM
RXRγ
  EC50: 20 nM
  Emax: 48%
RXRβ [1]
  EC50: 171 nM
  Emax: 33%
RXRβ [2]
  Ki: 215 nM

## CCN(c1ccc(C(=O)O)cc1)c1ccc2c(c1)C(C)(C)OC2(C)C [Compound 83, 4-[Ethyl-(1,1,3,3-tetramethyl-1,3-dihydro-isobenzofuran-5-yl)-amino]-benzoic acid]
RXRα
  Ki: 1000 nM
RXRγ
  EC50: 63 nM
  Emax: 140%
RXRβ [1]
  EC50: 1000 nM
  Emax: 100%
RXRβ [2]
  Ki: > 1000 nM

## CC(C)c1cc(N(C)c2ccc(C(=O)O)cc2)cc2c1OCC2(C)C [Compound 30, 4-[Methyl-(3,3-dimethyl-7-isopropyl-2,3-dihydro-benzofuran-5-yl)-amino]-benzoic acid]
RXRα
  Ki: 11000 nM
RXRγ
  EC50: > 1000 nM
  Emax: 70%
RXRβ [1]
  EC50: > 1000 nM
  Emax: 10%
RXRβ [2]
  Ki: 4600 nM

## CCN(c1ccc(C(=O)O)cc1)c1cc(C(C)(C)C)c2c(c1)C(C)(C)CO2 [Compound 32, 4-[Ethyl-(7-t-butyl-3,3-dimethyl-2,3-dihydro-benzofuran-5-yl)-amino]-benzoic acid]
RXRα
  Ki: 222 nM
RXRγ
  EC50: 230 nM
  Emax: 122%
RXRβ [1]
  EC50: 1000 nM
  Emax: 50%
RXRβ [2]
  Ki: 342 nM

## CC(C)N(c1ccc(C(=O)O)cc1)c1ccc2c(c1)C(C)(C)OC2(C)C [Compound 87, 4-[i-Propyl-(1,1,3,3-tetramethyl-1,3-dihydro-isobenzofuran-5-yl)-amino]-benzoic acid]
RXRα
  Ki: 650 nM
RXRγ
  EC50: 765 nM
  Emax: 134%
RXRβ [1]
  EC50: 1000 nM
  Emax: 65%
RXRβ [2]
  Ki: 2700 nM

## CCCCN(c1ccc(C(=O)O)cc1)c1ccc2c(c1)C(C)(C)OC2(C)C [Compound 85, 4-[n-Butyl-(1,1,3,3-tetramethyl-1,3-dihydro-isobenzofuran-5-yl)-amino]-benzoic acid]
RXRα
  Ki: > 1000 nM
RXRγ
  EC50: 700 nM
  Emax: 197%
RXRβ [1]
  EC50: 1000 nM
  Emax: 60%
RXRβ [2]
  Ki: > 1000 nM

## Cc1c(N(c2ccc(C(=O)O)cc2)C(C)C)cc2c(c1C(C)(C)C)OCC2(C)C [Compound 73, 4-[Isopropyl-(7-t-butyl-3,3,6-trimethyl-2,3-dihydro-benzofuran-5-yl)-amino]-benzoic acid]
RXRα
  Ki: 71 nM
RXRγ
  EC50: 17 nM
  Emax: 97%
RXRβ [1]
  EC50: 71 nM
  Emax: 92%
RXRβ [2]
  Ki: 178 nM
